Laboratory results as given in patent publication US8633206B2, “Pyrrolo[2,3-D]pyrimidine compounds” (Pfizer Inc., priority 2009, dated 2014).
pIC50: −log10 of the molar value.

How the values were obtained:
Type in all cases: biochemical
[1] = target: JAK1 (Homo sapiens (Human), UniProt P23458); test: JAK enzymatic assay (peptide mobility shift), JAK1; details: recombinant JAK1 20 nM, IRS-1 peptide, 240 minutes
Experimental: (§1) Recombinant JAK1 (Catalog Number PV4775), JAK2 (Catalog Number PV4210) and JAK3 (Catalog Number PV3855) were purchased from (Invitrogen Corporation, Madison, Wis.). […] Adenosine 5′-triphosphate (ATP) was obtained from (Sigma Chemical Company, St. Louis, Mo.). […] Coating Reagent 3 was purchased from (Caliper Life Sciences, Hopkinton, Mass.).
(§2) Compounds were diluted serially in 100% dimethyl sulfoxide and tested in an 11 point dose response in duplicate or quadruplicate (200 nl of compound/DMSO was added per 10 L reaction). […] The assay was run for 240 minutes for JAK1, 150 minutes for JAK2, 90 minutes for JAK3 and 70 minutes for Tyk2. […] The plates were placed on a LabChip 3000 (LC3000) instrument from (Caliper Life Sciences) to measure the formation of phosphorylated peptide. Data was analyzed using Hits Well Analyzer Software from (Caliper Life Sciences) to obtain the amount of product formed.
(§3) Data was then imported into an internal application where each data point is expressed as % inhibition based on uninhibited and no enzyme controls. Dose-response data is then fit using a 4 parameter logistic equation (Equation 1) to determine an IC50.

[2] = target: JAK3 (Homo sapiens (Human), UniProt P52333); test: JAK enzymatic assay (peptide mobility shift), JAK3; details: recombinant JAK3 1 nM, JAKtide peptide, 90 minutes
JAK3, sequence (P52333 781-1124): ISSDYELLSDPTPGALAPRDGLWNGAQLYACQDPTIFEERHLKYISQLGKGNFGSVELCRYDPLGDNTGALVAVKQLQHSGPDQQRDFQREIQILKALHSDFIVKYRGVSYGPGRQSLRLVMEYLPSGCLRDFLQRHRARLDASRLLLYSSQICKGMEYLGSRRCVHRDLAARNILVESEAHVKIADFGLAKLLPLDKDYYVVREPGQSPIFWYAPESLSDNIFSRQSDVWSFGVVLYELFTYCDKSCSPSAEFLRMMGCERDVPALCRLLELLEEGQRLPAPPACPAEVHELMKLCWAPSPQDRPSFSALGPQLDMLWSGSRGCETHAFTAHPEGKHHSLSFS
Experimental: as §1, §2, §3

[3] = target: JAK2 (Homo sapiens (Human), UniProt O60674); test: JAK enzymatic assay (peptide mobility shift), JAK2; details: recombinant JAK2 2 nM, JAKtide peptide, 150 minutes
JAK2, sequence (O60674 808-1132): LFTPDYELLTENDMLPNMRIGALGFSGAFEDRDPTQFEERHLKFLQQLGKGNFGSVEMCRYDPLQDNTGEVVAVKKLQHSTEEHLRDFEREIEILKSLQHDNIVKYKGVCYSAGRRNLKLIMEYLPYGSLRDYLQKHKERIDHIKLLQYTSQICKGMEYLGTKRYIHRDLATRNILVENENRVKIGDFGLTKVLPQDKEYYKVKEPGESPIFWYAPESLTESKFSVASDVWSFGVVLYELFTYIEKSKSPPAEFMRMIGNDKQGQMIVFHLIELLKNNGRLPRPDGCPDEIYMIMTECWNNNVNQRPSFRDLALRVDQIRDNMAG
Excerpt: Recombinant JAK1 (Catalog Number PV4775), JAK2 (Catalog Number PV4210) and JAK3 (Catalog Number PV3855) were purchased from (Invitrogen Corporation, Madison, Wis.). Tyk2 (His-Tyk2 (888-1182, C936S, C1142S)) used in this study was expressed and purified at Pfizer Laboratories. Adenosine 5′-triphosphate (ATP) was obtained from (Sigma Chemical Company, St. Louis, Mo.). […] Coating Reagent 3 was purchased from (Caliper Life Sciences, Hopkinton, Mass.).
A peptide mobility shift assay was used to quantify the phosphorylation of the JAKtide (JAK2 and JAK3) or the IRS-1 peptide (JAK1 and Tyk2). Reactions were carried out in a 384-well plate (Matrical MP-101) in a 10 L total volume. […] Compounds were diluted serially in 100% dimethyl sulfoxide and tested in an 11 point dose response in duplicate or quadruplicate (200 nl of compound/DMSO was added per 10 L reaction). The reactions were initiated by the addition of enzyme to the final concentration of 2 nM JAK2, 1 nM JAK3, 12 nM Tyk2 or 20 nM JAK1. The assay was run for 240 minutes for JAK1, 150 minutes for JAK2, 90 minutes for JAK3 and 70 minutes for Tyk2. The assays were stopped at the specified times with 20 uL of 140 mM HEPES, 22.5 mM EDTA and 0.15% Coating Reagent 3. The plates were placed on a LabChip 3000 (LC3000) instrument from (Caliper Life Sciences) to measure the formation of phosphorylated peptide. Data was analyzed using Hits Well Analyzer Software from (Caliper Life Sciences) to obtain the amount of product formed.
as §3

JAK1, sequence (P23458 whole entry): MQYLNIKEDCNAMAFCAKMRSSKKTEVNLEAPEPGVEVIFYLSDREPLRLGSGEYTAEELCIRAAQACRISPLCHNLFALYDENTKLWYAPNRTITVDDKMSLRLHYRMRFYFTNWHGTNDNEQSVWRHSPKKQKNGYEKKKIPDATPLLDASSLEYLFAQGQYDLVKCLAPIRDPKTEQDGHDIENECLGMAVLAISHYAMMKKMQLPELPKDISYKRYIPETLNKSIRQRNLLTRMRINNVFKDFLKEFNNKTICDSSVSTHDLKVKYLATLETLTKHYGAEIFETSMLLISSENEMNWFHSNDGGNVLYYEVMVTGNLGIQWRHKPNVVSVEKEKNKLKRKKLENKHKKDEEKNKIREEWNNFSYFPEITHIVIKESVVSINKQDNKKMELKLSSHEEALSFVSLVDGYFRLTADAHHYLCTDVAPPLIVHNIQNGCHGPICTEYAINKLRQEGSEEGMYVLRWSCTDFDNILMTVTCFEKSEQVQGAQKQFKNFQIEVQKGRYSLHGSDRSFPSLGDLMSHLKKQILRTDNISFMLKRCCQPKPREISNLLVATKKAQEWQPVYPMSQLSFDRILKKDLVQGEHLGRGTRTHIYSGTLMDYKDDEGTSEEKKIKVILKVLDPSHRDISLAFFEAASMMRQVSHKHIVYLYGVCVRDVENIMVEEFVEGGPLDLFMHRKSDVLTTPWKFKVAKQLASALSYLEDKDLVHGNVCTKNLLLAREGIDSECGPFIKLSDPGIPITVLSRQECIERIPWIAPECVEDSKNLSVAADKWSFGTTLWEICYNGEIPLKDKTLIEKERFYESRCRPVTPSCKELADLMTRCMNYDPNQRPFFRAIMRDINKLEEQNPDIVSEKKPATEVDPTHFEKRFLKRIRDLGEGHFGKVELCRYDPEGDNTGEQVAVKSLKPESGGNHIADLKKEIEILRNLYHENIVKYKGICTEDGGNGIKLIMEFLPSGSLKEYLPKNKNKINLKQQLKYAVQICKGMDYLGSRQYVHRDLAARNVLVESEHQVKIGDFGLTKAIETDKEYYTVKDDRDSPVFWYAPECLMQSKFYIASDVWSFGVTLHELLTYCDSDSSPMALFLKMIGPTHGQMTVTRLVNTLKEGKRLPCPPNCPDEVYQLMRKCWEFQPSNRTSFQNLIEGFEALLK

| SMILES | pIC50 [1] | pIC50 [2] | pIC50 [3] |
| --- | --- | --- | --- |
| CN(c1ncnc2[nH]ccc12)[C@H]1CC[C@H](CS(=O)(=O)N2CCCC(C(F)(F)F)C2)CC1 (stereo partly drawn) [Example 6, N-methyl-N-[trans-4-({[3-(trifluoromethyl)piperidin-1-yl]sulfonyl}methyl)-cyclohexyl]-7H-pyrrolo[2,3-d]pyrimidin-4-amine] | 8.14 | 6.22 | 7.27 |
| CN(c1ncnc2[nH]ccc12)[C@H]1CC[C@H](CS(=O)(=O)N2CC[C@@H](CO)C2)CC1 [Example 30, {(3R)-1-[({trans-4-[methyl(7H-pyrrolo[2,3-d]pyrimidin-4-yl)amino]-cyclohexyl}methyl)sulfonyl]-pyrrolidin-3-yl}-methanol] | 8.51 | 6.95 | 8.08 |
| COC[C@@H]1CCN(S(=O)(=O)C[C@H]2CC[C@H](N(C)c3ncnc4[nH]ccc34)CC2)C1 [Example 73, N-[trans-4-({[3-(methoxy-methyl)pyrrolidin-1-yl]-sulfonyl}methyl)-cyclohexyl]-N-methyl-7H-pyrrolo[2,3-d]pyrimidin-4-amine] | 8.77 | 6.86 | 7.65 |
| CN(c1ncnc2[nH]ccc12)[C@H]1CC[C@H](CS(=O)(=O)N2CCC(O)CC2)CC1 [Example 9, 1-[({trans-4-[methyl(7H-pyrrolo[2,3-d]pyrimidin-4-yl)amino]cyclohexyl}methyl)-sulfonyl]piperidin-4-ol] | 8.04 | 6.47 | 7.47 |
| Cc1nnc(C2CCCN(S(=O)(=O)C[C@H]3CC[C@H](N(C)c4ncnc5[nH]ccc45)CC3)C2)o1 (stereo partly drawn) [Example 18, N-methyl-N-[trans-4-({[3-(5-methyl-1,3,4-oxadiazol-2-yl)piperidin-1-yl]sulfonyl}methyl)-cyclohexyl]-7H-pyrrolo-[2,3-d]pyrimidin-4-amine] | 8.01 | 6.68 | 7.71 |
| CC(=O)C1CCCN(S(=O)(=O)C[C@H]2CC[C@H](N(C)c3ncnc4[nH]ccc34)CC2)C1 (stereo partly drawn) [Example 5, 1-{1-[({trans-4-[methyl(7H-pyrrolo[2,3-d]pyrimidin-4-yl)amino]-cyclohexyl}methyl)sulfonyl]-piperidin-3-yl}ethanone] | 8.15 | 6.47 | 7.66 |
| CN(c1ncnc2[nH]ccc12)[C@H]1CC[C@H](CS(=O)(=O)N2CCN(Cc3ccccn3)CC2)CC1 [Example 123, N-methyl-N-[trans-4-({[4-(pyridin-2-ylmethyl)-piperazin-1-yl]sulfonyl}-methyl)cyclohexyl]-7H-pyrrolo[2,3-d]pyrimidin-4-amine] | 7.86 | 6.49 | 7.30 |
| COCC1CCN(S(=O)(=O)C[C@H]2CC[C@H](N(C)c3ncnc4[nH]ccc34)CC2)CC1 [Example 43, N-[trans-4-({[4-(methoxy-methyl)piperidin-1-yl]-sulfonyl}methyl)-cyclohexyl]-N-methyl-7H-pyrrolo[2,3-d]pyrimidin-4-amine] | 7.89 | 6.36 | 7.15 |
| CN(c1ncnc2[nH]ccc12)[C@H]1CC[C@H](CS(=O)(=O)N2CCC[C@@](C)(O)C2)CC1 [Example 65, 3-methyl-1-[({trans-4-[methyl(7H-pyrrolo[2,3-d]-pyrimidin-4-yl)amino]-cyclohexyl}methyl)sulfonyl] piperidin-3-ol] | 8.12 | 6.37 | 7.39 |
| CC(C)COC1CCCN(S(=O)(=O)C[C@H]2CC[C@H](N(C)c3ncnc4[nH]ccc34)CC2)C1 (stereo partly drawn) [Example 138, N-(trans-4-{[(3-isobutoxypiperidin-1-yl)sulfonyl]methyl}cyclohexyl)-N-methyl-7H-pyrrolo[2,3-d]pyrimidin-4-amine] | 11.88 | 9.88 | 11.12 |
| CN(c1ncnc2[nH]ccc12)[C@H]1CC[C@H](CS(=O)(=O)N2CCC2)CC1 [Example 109, N-{trans-4-[(azetidin-1-ylsulfonyl)methyl]cyclo-hexyl}-N-methyl-7H-pyrrolo[2,3-d]pyrimidin-4-amine] | 7.84 | 6.54 | 7.40 |
| CN(c1ncnc2[nH]ccc12)[C@H]1CC[C@H](CS(=O)(=O)N2CC[C@H](O)[C@H](O)C2)CC1 [Example 22, (3R,4S)-1-[({trans-4-[methyl(7H-pyrrolo[2,3-d]pyrimidin-4-yl)amino]-cyclohexyl}methyl)sulfonyl]-piperidine-3,4-diol] | 7.94 | 6.86 | 7.49 |
| CN(c1ncnc2[nH]ccc12)[C@H]1CC[C@H](CS(=O)(=O)N2CC[C@H](c3ccccc3F)C2)CC1 [Example 93, N-[trans-4-({[3-(2-fluorophenyl)pyrrolidin-1-yl]sulfonyl}methyl)cyclo-hexyl]-N-methyl-7H-pyrrolo[2,3-d]pyrimidin-4-amine] | 8.26 | 6.54 | 7.43 |
| CN(c1ncnc2[nH]ccc12)[C@H]1CC[C@H](CS(=O)(=O)N2CC[C@@H](O)[C@H](O)C2)CC1 [Example 12, (3R,4R)-1-[({trans-4-[methyl(7H-pyrrolo[2,3-d]pyrimidin-4-yl)amino]-cyclohexyl}methyl)sulfonyl]-piperidine-3,4-diol] | 8.37 | 6.92 | 7.93 |
| CN(c1ncnc2[nH]ccc12)[C@H]1CC[C@H](CS(=O)(=O)N2CC[C@H](S(=O)(=O)Cc3ccccc3)C2)CC1 [Example 82, N-[trans-4-({[3-(benzyl-sulfonyl)pyrrolidin-1-yl]sulfonyl}-methyl)-cyclohexyl]-N-methyl-7H-pyrrolo[2,3-d]pyrimidin-4-amine] | 8.13 | 6.84 | 7.76 |
| CO[C@@H]1CCCN(S(=O)(=O)C[C@H]2CC[C@H](N(C)c3ncnc4[nH]ccc34)CC2)C1 [Example 60, N-(trans-4-{[(3-methoxy-piperidin-1-yl)sulfonyl]-methyl}cyclohexyl)-N-methyl-7H-pyrrolo[2,3-d]-pyrimidin-4-amine] | 8.77 | 6.69 | 7.63 |
| CN(c1ncnc2[nH]ccc12)[C@H]1CC[C@H](CS(=O)(=O)N2CC[C@@H](c3ccccc3)C2)CC1 [Example 100, N-methyl-N-(trans-4-{[(3-phenylpyrrolidin-1-yl)sulfonyl]methyl}cyclo-hexyl)-7H-pyrrolo[2,3-d]pyrimidin-4-amine] | 8.16 | 6.38 | 7.39 |
| CN(c1ncnc2[nH]ccc12)[C@H]1CC[C@H](CS(=O)(=O)N2CC[C@@](O)(COc3cccc(F)c3)C2)CC1 [Example 84, 3-[(3-fluorophenoxy)-methyl]-1-[({trans-4-[methyl(7H-pyrrolo[2,3-d]-pyrimidin-4-yl)amino]-cyclohexyl}methyl)sulfonyl] pyrrolidin-3-ol] | 8.51 | 6.88 | 7.58 |
| COC(=O)NC1CN(S(=O)(=O)C[C@H]2CC[C@H](N(C)c3ncnc4[nH]ccc34)CC2)C1 [Example 117, methyl {1-[({trans-4-[methyl(7H-pyrrolo[2,3-d]pyrimidin-4-yl)amino]-cyclohexyl}methyl)sulfonyl]azetidin-3-yl}carbamate] | 7.96 | 6.42 | 7.49 |
| CN(c1ncnc2[nH]ccc12)[C@H]1CC[C@H](CS(=O)(=O)N2CC[C@H](c3ncccn3)C2)CC1 [Example 87, N-methyl-N-(trans-4-{[(3-pyrimidin-2-ylpyrrolidin-1-yl)sulfonyl]methyl}cyclo-hexyl)-7H-pyrrolo[2,3-d]pyrimidin-4-amine] | 8.49 | 7.25 | 8.24 |
| C[C@@H]1C[C@@H](CS(=O)(=O)N2CCC[C@@H](O)C2)CC[C@@H]1N(C)c1ncnc2[nH]ccc12 [Example 129, (3R)-1-[({(1S,3R,4S)-3-methyl-4-[methyl(7H-pyrrolo[2,3-d]pyrimidin-4-yl)amino]cyclohexyl}-methyl)sulfonyl]piperidin-3-ol] | 8.77 | 7.71 | 8.16 |
